Measured values: patent publication US20190054054A1, “Methods reducing or preventing oxidation of high density lipoprotein (HDL)” (Amarin Pharmaceuticals Ireland Limited, priority 2017, published 2019)

Tests used:
[1] = test system: HUVECs; assay: NO and ONOO^− release from HUVECs treated concomitantly with agents and oxLDL (Example 11, Objective 2); format: cell-based, human; conditions: oxLDL 11 mg/dL treated 30 min with agents, each at 10 μM; cells exposed 60 min
Description: The omega-3 fatty acid, cis-5,8,11,14,17-eicosapentaenoic acid (EPA) and docosahexaenoic acid (DHA) were purchased from Sigma-Aldrich (Saint Louis, Mo.) and solubilized in redistilled ethanol to 11 mM under nitrogen atmosphere. EPA and DHA stock solutions were stored at −20° C. until use.
Human umbilical vein endothelial cells (HUVECs) were obtained from healthy, female donors and isolated into primary, proliferating cell cultures (Clonetics, San Diego, Calif.). The cells were incubated in 95% air/5% CO2 at 37° C. and passaged by an enzymatic (trypsin) procedure. The confluent cells (4 to 5×10^5 cells/35 mm dish) were plated with minimum essential medium containing 3 mM L-arginine and 0.1 mM BH4 [(6R)-5,6,7,8-tetrahydrobiopterin]. Before experimental use, the cells (from second or third passage) were rinsed twice with Tyrode-HEPES buffer with 1.8 mM CaCl2.
Venous blood was collected from healthy volunteers into vacutainer tubes containing sodium EDTA. Plasma was separated by centrifugation at 3000 g for 25 min at 4° C. and adjusted to a density of 1.020 g/mL with KBr. Triglyceride-rich lipoproteins (TGRL) and LDL fractions were isolated by sequential centrifugation at 70,000 rpm at 4° C. in a Beckman LE-80 ultracentrifuge using a Beckman 50.4Ti rotor (Beckman Coulter, Inc., Fullerton, Calif.). The TGRL fraction (with a relative density of <1.020) was aspirated from the top of the centrifugate and discarded, leaving an LDL-enriched infranate (with a relative density of 1.020-1.063). The LDL subfraction was retained for additional experimentation. Plasma and lipoprotein fractions were maintained at 4° C. and protected from excessive exposure to light. Prior to oxidation experiments, EDTA was removed from the lipoprotein fraction using PD-10 desalting columns (GE Healthcare, Piscataway N.J.). After equilibration of the column with phosphate buffered saline (PBS), 2.5 mL of the lipoprotein fraction was loaded on the column and the flow-through discarded. The lipoprotein was then eluted with 3 mL of PBS. The LDL fractions were further diluted with PBS to obtain a 100 μg/mL apoB100 concentration.
LDL underwent oxidation following the addition of 10 μM CuSO4. […] Sample TBARS concentrations were determined spectrophotometrically by measuring sample absorbances against a standard curve derived from the hydrolysis of 1,1,3,3-tetramethoxypropane. […]
The amperometric method (with a response time of 0.1 ms) provides a quantitative signal (current) that is directly proportional to changes (from basal levels) in NO or ONOO^− concentration. […] Basal NO or ONOO^− levels were measured by differential pulse voltammetry in separate experiments. […]

[2] = test system: sdLDL isolated from human subjects under conditions of hyperglycemia; assay: Glucose-induced sdLDL oxidation, MDA/TBARS (Example 10); format: biochemical; conditions: 200 mg/dL glucose; for effect on glucose-induced sdLDL oxidation: 10.0 μM
Description: Vitamin E (α-tocopherol) purchased from Sigma-Aldrich was prepared in ethanol at 1.0 mM (E=[…] at 294 nm) prior to experimental use. Test compounds were further diluted in ethanol or aqueous buffer as needed. Phosphate Buffered Saline (PBS) purchased from Sigma-Aldrich was prepared in double distilled water at 10 mM (138 mM NaCl, 2.7 mM KCl, pH 7.4). […] Lipid oxidation was measured by the colorimetric detection of malondialdehyde (MDA), a marker of oxidative stress. Data were presented as mean±SD for (n) separate samples or experiments. Differences between groups were analyzed using the unpaired, two-tailed Student's t-test (for comparisons between only two groups) or ANOVA followed by Student-Newman-Keuls multiple comparisons post hoc analysis (for comparisons between three or more groups).

[3] = test system: human sdLDL; assay: Copper-induced sdLDL oxidation, TBARS (Example 7); format: biochemical; conditions: for effect on sdLDL oxidation as compared to vehicle-treated controls: all at 10 μM, 1 hour (FIG. 16)
Description: An experiment to study the antioxidant effect of EPA in LDL and small dense […] performed. […] Fenofibrate, gemfibrozil, and niacin were purchased from Sigma-Aldrich. […] Vitamin E was also incubated with sample aliquots as a positive control.

[4] = test system: HUVECs; assay: NO release from HUVECs incubated with agent-treated oxidized sdLDL (Example 12); format: cell-based, human; conditions: for reduction of NO release as compared to vehicle-treated, oxidized sdLDL: oxidized sdLDL pretreated with agent at 10.0 μM
Description: All samples, with the exception of non-oxidized sdLDL controls, were subjected to copper-induced oxidation for 1 hour. Human umbilical vein endothelial cells (HUVECs) were incubated with the various sdLDL samples, stimulated with calcium, and monitored for nitric oxide (NO) and peroxynitrite (ONOO^−) release using nanosensor technology.

Compound | NO [1] | ONOO^− [1] | effect on glucose-induced sdLDL oxidation [2] | effect on sdLDL oxidation as compared to vehicle-treated controls [3] | reduction of NO release as compared to vehicle-treated, oxidized sdLDL [4] [%] | other results
CC/C=C\C/C=C\C/C=C\C/C=C\C/C=C\C/C=C\CCC(=O)O [DHA, docosahexaenoic acid] | 362 ± 39 | 240 ± 27 | – | – | – | –
CC/C=C\C/C=C\C/C=C\C/C=C\C/C=C\CCCC(=O)O [EPA, cis-5,8,11,14,17-eicosapentaenoic acid] | 385 ± 43 | 232 ± 24 | – | – | – | IC50 ([2]; read-out: IC50, inhibition of glucose-induced sdLDL oxidation): < 1 µM; inhibition of sdLDL oxidation as compared to vehicle controls ([2]; highest concentration tested): 94%; sdLDL oxidation (formation of MDA) ([2]; highest concentration tested, unit of the source corrected): 0.2 ± 0.1 µM; inhibition of sdLDL oxidation as compared to vehicle ([3]; 1.0 μM (each agent), 1 hr): 19±8%; effect on sdLDL oxidation as compared to vehicle or DHA ([3]; 10.0 μM, after 4 hours): significantly inhibited sdLDL oxidation; IC50 ([3]; 1 hr, 10 μM CuSO4, read-out: IC50, inhibition of sdLDL oxidation (calculated)): ~2 µM; inhibition of sdLDL oxidation as compared to vehicle ([3]; each agent at 10.0 μM, 1 hour (FIG. 17)): 92±8%; inhibition of TBARS formation ([3]; highest treatment concentration (10 μM), 1 hr): 93±2%; increase in NO release as compared to non-oxidized sdLDL treatment ([4]; EPA-treated, oxidized sdLDL): 23%; increase in NO release as compared to oxidized LDL treatment ([4]; EPA-treated, oxidized sdLDL): 53%; HUVEC NO release ([4]; exposure to EPA-treated (10.0 μM), oxidized sdLDL): 931 ± 59 nM
Cc1ccc(C)c(OCCCC(C)(C)C(=O)O)c1 [gemfibrozil] | – | – | did not inhibit glucose-induced sdLDL oxidation | no significant effect on sdLDL oxidation | 33 | –
O=C(O)c1cccnc1 [niacin, nicotinic acid] | – | – | did not inhibit glucose-induced sdLDL oxidation | no significant effect on sdLDL oxidation | 45 | –
Cc1c(C)c2c(c(C)c1O)CC[C@@](C)(CCC[C@H](C)CCC[C@H](C)CCCC(C)C)O2 [vitamin E, α-tocopherol] | – | – | failed to inhibit sdLDL oxidation | no significant effect on sdLDL oxidation | – | increase in sdLDL oxidation as compared to glucose-treated controls [2]: 63%
